Values joined by “and” are separate entries in the source; they are usually repeats but may differ in a detail not shown here. Equal entries are not always repeated.
Tests used:
Format in all cases: cell-based
[1] = tested on: primary rat cortical neurons injured with Aβ1-42; assay: Neuroprotective effect on an in vitro model of Alzheimer disease; settings: Aβ1-42 20 μM, 24 h, no compound
Procedure: These peptides contribute to cerebrovascular lesions and are neurotoxic. This study investigated the neuroprotective effect of the plant extract of the invention on rat primary cortical cultures following exposure to Aβ1-42 in an in vitro AD model (Callizot. N., et al., 2013).
Rat cortical neurons were cultured as described in Example 6.
The cortical neurons were intoxicated with amyloid beta peptides solutions after 11 days of culture in presence of tested compound CR777.
Briefly, Aβ1-42 peptide (Batch: APN09080-1-1, Abcam, United Kingdom) was dissolved in the defined culture medium B27 mentioned above, devoid of serum, at an initial concentration of 40 μmol/L. This solution was gently agitated for 3 days at 37° C. in the dark and immediately used after being properly diluted in culture medium to the concentrations used (20 μM corresponding to 2 μM of AβO, measuring by WB, for survival, neurite network, tau phosphor and caspase 3 activation and 2.5 μM corresponding to 0.25 μM of AβO, for synapses evaluation).
CR777 was solved in DMSO at 10 mM and diluted in culture medium at different concentrations (see table below). The compound was tested on one primary cortical culture in 96 well plates (6 wells per conditions), and was pre-incubated 1 hour before Aβ1-42 application for 24 hours.
24 hours after intoxication, the cell culture supernatant was taken off and the cortical neurons were fixed by a cold solution of ethanol (95%) and acetic acid (5%) for 5 min at −20° C. • Plate 1: Immunostainning (MAP-2/Tau Phosphor)
After permeabilization with 0.1% of saponin, cells were incubated for 2 hours with a) a mouse monoclonal antibody anti phosphoT at dilution of 1/400 in PBS containing 1% fetal calf serum and 0.1% of saponin and b) a chicken polyclonal antibody anti microtubule-associated-protein 2 (MAP-2) at dilution of 1/1000 in PBS containing 1% fetal calf serum and 0.1% of saponin (this antibody stains specifically cell bodies and neurites, allowing study of neuronal cell survival and neurite network).
(§1) For each condition, 30 pictures/well (representative of ˜the all well area) were taken automatically using ImageXpress (Molecular Devices) with 20× magnification. All images were taken with the same conditions. Analysis were performed automatically by using Custom Module Editor (Molecular Devices).
The following endpoints were investigated per culture well: • The total neuron survival (MAP-2 staining), • The neurite network (MAP-2 staining) and • hyperphophorylation of T protein (pT) into neurons (pT/MAP-2). • Plate 2: Immunostainning (MAP-2/Caspase 3)
as §1, with “Devices). • The total number of caspase 3 positive neuron (overlapping caspase3/MAP-2) were investigated per culture well:” for “Devices).”
Data is expressed in percentage of control conditions (no injury, no compound=100%). All values are expressed as mean+/−SEM (standard error of the mean) from 6 wells per condition per culture. Neuro-Sys performed graphs and statistical analyses on the different conditions (ANOVA followed by Dunnett's test when allowed, using GraphPad Prism software version 5.0).

[2] = tested on: primary rat dopaminergic neurons (TH positive neurons) injured with MPP+; assay: Neuroprotective effect following exposure to MPP+; settings: MPP+ 4 μM, 48 h, no compound
Procedure: This study investigated the neuroprotective effect of the Compound CR777 of example 1 on rat primary mesencephalic cultures following exposure to 1-methyl-4-phenyl pyridinium (MPP^+).
Rat dopaminergic neurons were cultured as described by Visanji et al., 2008 FASEB J. 2008; 22(7):2488-97. Briefly, the midbrains obtained from 15-day old rat embryos (Janvier Labs, France) were dissected under a microscope. The embryonic midbrains were removed and placed in ice-cold medium of Leibovitz (L15, Batch 4290114, Pan Biotech, Germany) containing 2% of Penicillin-Streptomycin (PS, Batch 1451013, Pan Biotech) and 1% of bovine serum albumin (BSA, Batch K030913, Pan Biotech). The ventral portion of the mesencephalic flexure, a region of the developing brain rich in dopaminergic neurons, was used for the cell preparations.
The midbrains were dissociated by trypsinisation for 20 min at 37° C. […] The cells were seeded in supplemented neurobasal medium at a density of 40 000 cells/well in 96 well-plates pre-coated with poly-L-lysine (Batch 3102256, Corning Biocoat) and maintained in a humidified incubator at 37° C. in 5% CO2/95% air atmosphere. Half of the medium was changed every 2 days with fresh medium.
On day 6 of culture, the medium was removed and fresh medium was added, without or with MPP+ at 4 μM diluted in control medium and let for 48 h. […]
The following conditions were assessed: (6 wells per condition) • Control (vehicle) • Compound CR777 of example 1 (1 pmol/L) • Compound CR777 of example 1 (10 pmol/L) • Compound CR777 of example 1 (100 pmol/L) • Compound CR777 of example 1 (1 nmol/L) • Compound CR777 of example 1 (10 nmol/L) • Compound CR777 of example 1 (100 nmol/L) • Compound CR777 of example 1 (1 μmol/L) • Compound CR777 of example 1 (10 μmol/L) […]
Data were expressed in percentage of control conditions (no injury, no compound=100%). All values were expressed as mean+/−SEM (standard error mean) of the 6 wells with statistical analyses on the different conditions (ANOVA followed by Dunnett's test when allowed, using GraphPad Prism software).

[3] = tested on: primary rat dopaminergic neurons (TH positive neurons) injured with 6-OHDA; assay: Neuroprotective effect following exposure to 6-OHDA, with or without pathway inhibitors; settings: 6-OHDA 20 μM, 48 h, no compound
Procedure: This study investigated the mode of action of CR777 on rat primary mesencephalic cultures following exposure to 6-OHDA. The effect of CR777 on level of GDNF and BDNF mRNA was investigated after 24 h 6-OHDA incubation and CR777. The main pathways of survival, regulation of the apoptosis and neuronal growth were investigated in presence of CR777 and inhibitors of these different pathways. The following pathways were investigated using antagonists of different proteins of interest: • RAS (small GTPase)/RAF (proto-oncogene Serine/threonine kinase); • Peroxisome proliferator-activated receptor gamma (PPAR-γ) (nuclear receptor) • The Pi3K/AKT/mTor (cell signaling pathway that plays a key role in cellular homeostasis through its role in regulation of apoptosis, cell growth, cell cycle). • NO (nitric oxide) pathway
Rat dopaminergic neurons were cultured as described in Example 4.
On day 6 of culture, the medium was removed and fresh medium was added, without or with 6-OHDA (Sigma, Batch: 083M4624V) at 20 μM diluted in control medium and let for 48 h. In parallel, all inhibitors were solved in culture medium and were added 2 h before the 6-OHDA application (namely 1 h before test compounds application).
CR777 was solved in DMSO at 10 mM, diluted in culture medium and then pre-incubated with mesencephalic neurons 1 hour before the 6-OHDA application (48 h). 6 wells per condition were assessed.
For survival and α-syn aggregation, compound was tested on 1 culture in a 96 well-plate (6 wells per condition), was pre-incubated 1 hour before 6-OHDA and let for 48 hours.
The following conditions were assessed: • Control (culture medium) • +6-OHDA (20 μM, 48 h) • +6-OHDA (20 μM, 48 h)+CR777 1 μM • +6-OHDA (20 μM, 48 h)+CR777 100 nM • +6-OHDA (20 μM, 48 h)+CR777 10 nM • +6-OHDA (20 μM, 48 h)+CR777 1 nM
For pathway investigation, the compound was tested on one primary dopaminergic culture in 96 well plates (6 wells per conditions).
Inhibitors were pre-incubated for 2 hours before 6-OHDA application and CR777 was pre-incubated 1 hour before 6-OHDA application.
The antagonists/inhibitors used in the experiments are the following: • FTS: farnesylthiosalicylic acid selectively disrupts the association of chronically active Ras proteins with the plasma membrane. • BEZ-235: dual PI3K/mTOR inhibitor. • T0070907: selective PPAR-γ antagonist • L-NAME (Nitro-L-arginine methyl ester): precursor to NOS inhibitor, L-NNA—requires bioactivation to become a fully functional inhibitor. • ABT-199: selective inhibitor of Bcl-2.
48 hours after intoxication, the cell culture supernatant was taken off and the dopaminergic neurons were fixed by a solution of 4% paraformaldehyde in PBS, pH=7.3 for 20 min at room temperature.
After permeabilization with 0.1% of saponin, cells were incubated for 2 hours with:
monoclonal Anti-Tyrosine Hydroxylase (TH) antibody produced in mouse at dilution of 1/10000 in PBS containing 1% FCS, 0.1% saponin,
polyclonal anti-α-syn antibody produced in rabbit at dilution of 1/200 for 2 h at room temperature.
For each condition, 20 pictures/well (representative of ˜the all well area) were automatically taken using ImageXpress (Molecular Devices) with 10× magnification. All images were taken with the same conditions. Analysis were automatically performed by using Custom Module Editor (Molecular Devices).
The following endpoint was investigated for each culture well: • The total dopaminergic neuron survival (TH staining), • The total area of α-syn on TH positive neuron (overlapping α-syn/TH)
After permeabilization with 0.1% of saponin, cells were incubated for 2 hours with monoclonal Anti-Tyrosine Hydroxylase (TH) antibody produced in mouse at dilution of 1/10000 in PBS containing 1% FCS, 0.1% saponin, for 2 h at room temperature.
The total dopaminergic neuron survival (TH staining) was investigated for each culture well.

[4] = tested on: primary rat cortical neurons injured with glutamate; assay: Effect in rat primary cortical neurons after glutamate injury; settings: glutamate 40 μM, 20 min, no compound
Procedure: A., et al., 1999. J Neurosci 19: 2455-2463 and Callizot.
The medium was changed every 2 days. The cortical neurons were intoxicated with glutamate solution.
The following conditions were assessed: • Control (culture medium) • + glutamate (40 μM, 20 min) • + glutamate (40 μM, 20 min)+CR777 (at each concentration)

[5] = tested on: primary rat motor neurons injured with glutamate; assay: Primary motor neuron culture survival after glutamate exposure (in vitro ALS model); settings: glutamate 5 μM for 20 min, no compound
Procedure: The aim of this study was to study the effect of CR777 on primary motor neuron culture from rat spinal cord (SC) injured by glutamate exposure (a well validated in vitro ALS model and model of motor neuron diseases).
Rat SC motor neurons were cultured as described by Martinou et al., Neuron. 1992 April; 8(4):737-44 and Wang et al., Hum Mol Genet. 2013 Dec. 1; 22(23):4706-19. Briefly, pregnant female rats (Wistar, Janvier labs) of 14 days gestation were killed by cervical dislocation. […] Cells were then centrifuged at 180 g for 10 min at +4° C. on a layer of BSA (3.5%) in L15 medium. […] The medium was changed every day.
The following conditions were assessed: • Control • + glutamate (5 μM 20 mn then 48 h) • + glutamate (5 μM 20 mn then 48 h)+CR777 1 pmol/L • + glutamate (5 μM 20 mn then 48 h)+CR777 10 pmol/L • + glutamate (5 μM 20 mn then 48 h)+CR777 100 pmol/L • + glutamate (5 μM 20 mn then 48 h)+CR777 1 nmol/L • + glutamate (5 μM 20 mn then 48 h)+CR777 10 nmol/L • + glutamate (5 μM 20 mn then 48 h)+CR777 100 nmol/L • + glutamate (5 μM 20 mn then 48 h)+CR777 1 μmol/L • + glutamate (5 μM 20 mn then 48 h)+CR777 10 μmol/L […]
For each condition, 6 wells were assessed, 30 pictures per well were taken using ImageXpress (Molecular Devices) with 20× magnification, to assess motor neuron survival (MAP-2). […]

Amyloid beta peptide 1-42 [Aβ, reference compound]
caspase 3 activation induced by Aβ [1]: activation of caspase 3
hyperphosphorylation of tau induced by Aβ [1]: increase of the hyperphosphorylation of tau
neurite network loss induced by Aβ [1]: ~40%

C[n+]1ccc(-c2ccccc2)cc1 [MPP+, 1-methyl-4-phenyl pyridinium, reference compound]
TH positive neuron cell death induced by the toxin [2]: > 35%

NCCc1cc(O)c(O)cc1O [Compound 6-OHDA, reference compound]
TH positive neuronal death induced by the toxin [3]: ~30%
loss of the neurite network induced by the toxin [3]: ~35% and ~40%
α-syn aggregation inside TH neuron cytoplasm induced by the toxin [3]: large and significant α-syn aggregation

N[C@@H](CCC(=O)O)C(=O)O [Glutamate, glutamate, reference compound]
neurite network loss induced by glutamate [4]: neurite network loss
neuronal death induced by glutamate [4]: significant neuronal death
motor neuron death induced by glutamate [5]: > 30%

Reference: US11634452B2, “Compounds for treating neurodegenerative disorders” (ETHNODYNE, priority 2017, dated 2023)
